Data: patent publication US20070299089A1, “Use of A2A Adenosine Receptor Agonists in the Treatment of Ischemia” (CV THERAPEUTICS, INC., priority 2006, published 2007)
Converted amounts (≈) assume the structure as drawn.

How the values were obtained:
[1] = tested on: mouse isolated hearts; test: Coronary vascular resistance in Langendorff-perfused isolated hearts, Protocol 1 (CPP lowered to 30 mmHg for 20 min, then restored to 65 mmHg); settings: for increase in CVR during lowering of CPP: n=6, p<0.001
Protocol: (§1) The objective of this example was to determine whether the selective and stable A2A agonist, regadenoson, can prevent or modify coronary microcirculation vasoconstriction during ischemia. To this purpose, in 60 mouse isolated hearts perfused in Langendorff configuration coronary vascular resistance (CVR) was continuously monitored for 70 min during various interventions using two different protocols. In hearts (n=9) perfused at a constant coronary perfusion pressure (CPP) of 65 mmHg CVR remained stable throughout the 70 min of the experiment.
In Protocol 1, CPP was lowered to 30 mmHg at 20 min, maintained for the following 20 min and restored to 65 mmHg for the remaining 30 min. In untreated hearts (n=12), lowering CPP for 20 min increased CVR up to a maximum of 191%±9 above baseline (P<0.001).

[2] = tested on: mouse isolated hearts; test: Coronary vascular resistance in Langendorff-perfused isolated hearts, Protocol 2 (CPP lowered to 30 mmHg and maintained for 50 min); settings: n=6
Protocol: as §1
In Protocol 2, CPP was lowered to 30 mmHg at 20 min and maintained for the remaining 50 min. In untreated hearts (n=9), the sustained lowering of CPP was accompanied by a progressive rise in CVR up to the end of the experiment when it reached a maximum of 240%±21 above baseline. Addition of regadenoson (10 nM) to the perfusate either at 10 (n=6) or 30 (n=6) min after lowering CPP caused a rapid and progressive vasodilation thereby bringing CVR to baseline values within 10 min. In summary, the isolated heart reacts to lowering of CPP with a progressive and severe vasoconstriction that can be prevented by pre-treatment with an A2A agonist.

[3] = Solubility in water; assay type: physicochemical
Protocol: In one aspect of this invention, mammalian ischemia is treated with a pharmaceutical composition including CVT-3146—regadenoson. Regadenoson has solubility in water of about 50 micrograms/mL. Therefore, regadenoson can be dissolved and administered in water so long as the desired weight amount of regadenoson can be administered in an acceptable volume. For example, a dose of about 400 micrograms can be administered in 8 mL of water. If this volume is too great for administration purposes, or if the pharmaceutical composition will be stored at other than room temperature (RT), then additional ingredients can be added to the composition to increase the solubility of regadenoson in the composition and/or to provide the resulting pharmaceutical composition with other improved properties such as improved stability and storage properties.

solubility [3]: ~50 µg/mL (≈ 128 µM)
Structure (SMILES): CNC(=O)c1cnn(-c2nc(N)c3ncn([C@@H]4O[C@H](CO)[C@@H](O)[C@H]4O)c3n2)c1 [regadenoson, (1-{9-[(4S,2R,3R,5R)-3,4-dihydroxy-5-(hydroxymethyl)oxolan-2-yl]-6-aminopurin-2-yl}pyrazol-4-yl)-N-methylcarboxamide]
maximum increase in CVR above baseline during lowering of CPP ([1]; regadenoson 3 nM, CPP 30 mmHg for 20 min, n=6, untreated hearts 191%±9): 131%±15 | elevated CVR remaining after restoring CPP to 65 mmHg ([1]; regadenoson 3 nM, untreated hearts 153%±10 above baseline): significantly reduced | increase in CVR during lowering of CPP ([1]; regadenoson 10 nM, CPP 30 mmHg for 20 min): abolished the increase in CVR | elevated CVR remaining after restoring CPP to 65 mmHg ([1]; regadenoson 10 nM, p<0.01): abolished | increase in CVR during lowering of CPP ([1]; regadenoson 30 nM, CPP 30 mmHg for 20 min): abolished the increase in CVR | elevated CVR remaining after restoring CPP to 65 mmHg ([1]; regadenoson 30 nM, p<0.01): abolished | time to bring CVR to baseline values ([2]; regadenoson 10 nM added to perfusate 10 min after lowering CPP): ≤ 10 min | time to bring CVR to baseline values ([2]; regadenoson 10 nM added to perfusate 30 min after lowering CPP): ≤ 10 min
